This passage reports EC50 results from patent US20230079045A1 (priority 2019, published 2023).

Common to all, as to format: cell-based, influenza virus
One assay relates to IFVA/Mal/302/54. The assay is described as follows: cytopathic effect (CPE) antiviral test in MDCK cells, IFVA/Mal/302/54. Conditions: unidentified influenza virus, MDCK, 120 h, read-out: EC50(IFVA/Mal/302/54), MDCK cells, CPE method, CCK-8 cell viability, 5 days.
A further assay has as its system IFVA/Weiss/43. The assay is described as follows: cytopathic effect (CPE) antiviral test in MDCK cells, IFVA/Weiss/43. Conditions: unidentified influenza virus, MDCK, 120 h, read-out: EC50(IFVA/Weiss/43), MDCK cells, CPE method, CCK-8 cell viability, 5 days.
The next assay concerns IFV A/PR/8/34. The assay is described as follows: cytopathic effect (CPE) antiviral test in MDCK cells, IFV A/PR/8/34. Conditions: unidentified influenza virus, PR/8, MDCK, 120 h, read-out: EC50(IFV A/PR/8/34).

On to `O=C(Nc1ccc2nc(-c3ccnc(C(=O)N4CCN(C(c5ccccc5)c5nnn(C(F)F)n5)CC4)c3)oc2c1)[C@@H]1CC1(F)F` (mixture of isomers) [Compound 103, (S)—N-(2-(2-(4-((R/S)-(2-(difluoromethyl)-2H-tetrazol-5-yl)(phenyl)methyl)piperazine-1-carbonyl)pyridin-4-yl)benzo[d]oxazol-6-yl)-2,2-difluorocyclopropane-1-carboxamide], for which the EC50 in the assay on IFVA/Mal/302/54 is 17 nM; with IFVA/Weiss/43, 7 nM; with IFV A/PR/8/34, 26 nM.

In the case of `O=C(Nc1ccc2oc(-c3ccnc(C(=O)N4CCN(C(c5ccccc5)c5nnn(C(F)F)n5)CC4)c3)cc2c1)[C@@H]1C[C@@H]1F` (mixture of isomers) [Compound 111, (1S,2S)—N-(2-(2-(4-((R/S)-(2-(difluoromethyl)-2H-tetrazol-5-yl)(phenyl)methyl)piperazine-1-carbonyl)pyridin-4-yl)benzofuran-5-yl)-2-fluorocyclopropane-1-carboxamide], the EC50 with IFVA/Mal/302/54 was 2 nM; with IFVA/Weiss/43, 0.5 nM; with IFV A/PR/8/34 it was 2 nM.

For the compound `Cc1nnn(C(c2ccccc2)C2CCN(C(=O)c3cc(-c4nc5cc(NC(=O)[C@@H]6C[C@@H]6F)ccc5o4)ccn3)CC2)n1` (mixture of isomers) [Compound 120, (1S,2S)-2-fluoro-N-(2-(2-(4-((R/S)-(5-methyl-2H-tetrazol-2-yl)(phenyl)methyl)piperidine-1-carbonyl)pyridin-4-yl)benzo[d]oxazol-5-yl)cyclopropanecarboxamide], the EC50 in the assay with IFVA/Mal/302/54 is 14 nM; in the assay with IFVA/Weiss/43, 3 nM; in the assay on IFV A/PR/8/34, 12 nM.

As for `CC(=O)Nc1ccc2oc(-c3ccnc(C(=O)C4CCN(C(c5ccccc5)c5nnn(C(F)F)n5)CC4)c3)nc2c1` (racemic) [Compound 42, (R/S)—N-(2-(2-(1-((2-(difluoromethyl)-2H-tetrazol-5-yl)(phenyl)methyl)piperidine-4-carbonyl)pyridin-4-yl)benzo[d]oxazol-5-yl)acetamide], the figures for the EC50 in the assay with IFVA/Mal/302/54, in the assay on IFVA/Weiss/43 and with IFV A/PR/8/34 were 10 nM, 20 nM and 20 nM, respectively.

With `Cn1nnc(C(c2ccccc2)N2CCN(C(=O)c3cc(-c4nc5cc(N6CCCC6=O)ccc5o4)ccn3)CC2)n1` (racemic) [Compound 45, (R/S)-1-(2-(2-(4-((2-methyl-2H-tetrazol-5-yl)(phenyl)methyl)piperazine-1-carbonyl)pyridin-4-yl)benzo[d]oxazol-5-yl)pyrrolidin-2-one], the EC50 in the assay with IFVA/Mal/302/54 was found to be 12 nM; in the assay on IFVA/Weiss/43, 15 nM; in the assay on IFV A/PR/8/34, 27 nM.

As for `O=C(Nc1ccc2oc(-c3ccnc(C(=O)N4CCN(C(c5ccccc5)c5nnn(C(F)F)n5)CC4)c3)nc2c1)C1CCC1` (racemic) [Compound 67, (R/S)—N-(2-(2-(4-((2-(difluoromethyl)-2H-tetrazol-5-yl)(phenyl)methyl)piperazine-1-carbonyl)pyridin-4-yl)benzo[d]oxazol-5-yl)cyclobutanecarboxamide], the EC50 in the assay with IFVA/Mal/302/54 is 21 nM; with IFVA/Weiss/43, 12 nM; in the assay with IFV A/PR/8/34, 17 nM.

As for `O=C(c1cc(-c2nc3cc(-c4cnsc4)ccc3o2)ccn1)N1CCN(C(c2ccccc2)c2nnn(C(F)F)n2)CC1` (racemic) [Compound 101, (R/S)-(4-((2-(difluoromethyl)-2H-tetrazol-5-yl)(phenyl)methyl)piperazin-1-yl)(4-(5-(isothiazol-4-yl)benzo[d]oxazol-2-yl)pyridin-2-yl)methanone], the EC50 with IFVA/Mal/302/54 amounted to 6 nM; in the assay with IFVA/Weiss/43 it was 4 nM; with IFV A/PR/8/34, 27 nM.

For `O=C(Nc1ccc2nc(-c3ccnc(C(=O)N4CCN(C(c5ccccc5)c5nnn(C(F)F)n5)CC4)c3)oc2c1)C1CC1` (racemic) [Compound 104, (R/S)—N-(2-(2-(4-((2-(difluoromethyl)-2H-tetrazol-5-yl)(phenyl)methyl)piperazine-1-carbonyl)pyridin-4-yl)benzo[d]oxazol-6-yl)cyclopropanecarboxamide], the results for the EC50 with IFVA/Mal/302/54, in the assay with IFVA/Weiss/43 and with IFV A/PR/8/34 were 16 nM, 12 nM and 59 nM, respectively.

Regarding `Cn1cc(-c2ccc3oc(-c4ccnc(C(=O)N5CCN(C(c6ccccc6)c6nnn(C(F)F)n6)CC5)c4)nc3c2)cn1` (racemic) [Compound 105, (R/S)-(4-((2-(difluoromethyl)-2H-tetrazol-5-yl)(phenyl)methyl)piperazin-1-yl)(4-(5-(1-methyl-1H-pyrazol-4-yl)benzo[d]oxazol-2-yl)pyridin-2-yl)methanone], the EC50 in the assay on IFVA/Mal/302/54 turned out to be 9 nM; in the assay on IFVA/Weiss/43, 7 nM; with IFV A/PR/8/34, 11 nM.

Turning to `Cn1ccnc1-c1ccc2nc(-c3ccnc(C(=O)N4CCN(C(c5ccccc5)c5nnn(C(F)F)n5)CC4)c3)oc2c1` (racemic) [Compound 107, (R/S)-(4-((2-(difluoromethyl)-2H-tetrazol-5-yl)(phenyl)methyl)piperazin-1-yl)(4-(6-(1-methyl-1H-imidazol-2-yl)benzo[d]oxazol-2-yl)pyridin-2-yl)methanone], the EC50 turned out to be 6 nM in the assay on IFVA/Mal/302/54, 2 nM in the assay with IFVA/Weiss/43 and 9 nM in the assay on IFV A/PR/8/34.

In the case of `CC(C)(F)C(=O)Nc1ccc2oc(-c3ccnc(C(=O)N4CCN(C(c5ccccc5)c5nnn(C(F)F)n5)CC4)c3)nc2c1` (racemic) [Compound 108, (R/S)—N-(2-(2-(4-((2-(difluoromethyl)-2H-tetrazol-5-yl)(phenyl)methyl)piperazine-1-carbonyl)pyridin-4-yl)benzo[d]oxazol-5-yl)-2-fluoro-2-methylpropanamide], the EC50 is 6 nM in the assay with IFVA/Mal/302/54, 2 nM in the assay with IFVA/Weiss/43 and 23 nM with IFV A/PR/8/34.

As for `[2H]C([2H])([2H])C(C(=O)Nc1ccc2oc(-c3ccnc(C(=O)N4CCN(C(c5ccccc5)c5nnn(C(F)F)n5)CC4)c3)nc2c1)C([2H])([2H])[2H]` (racemic) [Compound 109, (R/S)—N-(2-(2-(4-((2-(difluoromethyl)-2H-tetrazol-5-yl)(phenyl)methyl)piperazine-1-carbonyl)pyridin-4-yl)benzo[d]oxazol-5-yl)-2-(methyl-d3)propanamide], the results for the EC50 in the assay with IFVA/Mal/302/54, with IFVA/Weiss/43 and in the assay with IFV A/PR/8/34 were 11 nM, 6 nM and 12 nM, respectively.

Regarding `O=C(c1cc(-c2nc3cc(-c4cnccn4)ccc3o2)ccn1)N1CCN(C(c2ccccc2)c2nnn(C(F)F)n2)CC1` (racemic) [Compound 112, (R/S)-(4-((2-(difluoromethyl)-2H-tetrazol-5-yl)(phenyl)methyl)piperazin-1-yl)(4-(5-(pyrazin-2-yl)benzo[d]oxazol-2-yl)pyridin-2-yl)methanone], the EC50 came out at 8 nM in the assay with IFVA/Mal/302/54, 11 nM in the assay with IFVA/Weiss/43 and 36 nM in the assay on IFV A/PR/8/34.

For `CC(=O)N(C)c1ccc2oc(-c3ccnc(C(=O)N4CCN(C(c5ccccc5)c5nnn(C(F)F)n5)CC4)c3)nc2c1` (racemic) [Compound 113, (R/S)—N-(2-(2-(4-((2-(difluoromethyl)-2H-tetrazol-5-yl)(phenyl)methyl)piperazine-1-carbonyl)pyridin-4-yl)benzo[d]oxazol-5-yl)-N-methylacetamide], the EC50 in the assay with IFVA/Mal/302/54 was found to be 18 nM; in the assay with IFVA/Weiss/43, 19 nM; in the assay on IFV A/PR/8/34, 20 nM.

With `[2H]C([2H])([2H])C(=O)Nc1ccc2oc(-c3ccnc(C(=O)N4CCN(C(c5ccccc5)c5nnn(C(F)F)n5)CC4)c3)nc2c1` (racemic) [Compound 114, (R/S)—N-(2-(2-(4-((2-(difluoromethyl)-2H-tetrazol-5-yl)(phenyl)methyl)piperazine-1-carbonyl)pyridin-4-yl)benzo[d]oxazol-5-yl) Deuterated Acetamide], the figures for the EC50 in the assay on IFVA/Mal/302/54, in the assay with IFVA/Weiss/43 and with IFV A/PR/8/34 were 10 nM, 19 nM and 25 nM, respectively.

For `O=C(c1cc(-c2nc3cc(-c4nccs4)ccc3o2)ccn1)N1CCN(C(c2ccccc2)c2nnn(C(F)F)n2)CC1` (racemic) [Compound 119, (R/S)-(4-((2-(difluoromethyl)-2H-tetrazol-5-yl)(phenyl)methyl)piperazin-1-yl)(4-(5-(thiazol-2-yl)benzo[d]oxazol-2-yl)pyridin-2-yl)methanone], the EC50 turned out to be 6 nM with IFVA/Mal/302/54, 2 nM with IFVA/Weiss/43 and 22 nM in the assay with IFV A/PR/8/34.

On to `O=C(Nc1ccc2oc(-c3ccnc(C(=O)N4CCN(C(c5ccccc5)c5nnn(C(F)F)n5)CC4)c3)nc2c1)C1CC1` (stereo not shown) [Compound 36, N-(2-(2-(4-((2-(difluoromethyl)-2H-tetrazol-5-yl)(phenyl)methyl)piperazine-1-carbonyl)pyridin-4-yl)benzo[d]oxazol-5-yl)cyclopropanecarboxamide], for which the figures for the EC50 in the assay with IFVA/Mal/302/54, with IFVA/Weiss/43 and in the assay with IFV A/PR/8/34 were 10 nM, 4 nM and 17 nM, respectively.

As to `Cn1ccnc1-c1ccc2oc(-c3ccnc(C(=O)N4CCN(C(c5ccccc5)c5nnn(C(F)F)n5)CC4)c3)nc2c1` (stereo not shown) [Compound 72, (4-((2-(difluoromethyl)-2H-tetrazol-5-yl)(phenyl)methyl)piperazin-1-yl)(4-(5-(1-methyl-1H-imidazol-2-yl)benzo[d]oxazol-2-yl)pyridin-2-yl)methanone], the EC50 in the assay on IFVA/Mal/302/54, in the assay with IFVA/Weiss/43 and in the assay with IFV A/PR/8/34 was 4 nM throughout.

Consider `O=C1CCCN1c1ccc2oc(-c3ccnc(C(=O)N4C5CCC4CN(C(c4ccccc4)c4nnn(C(F)F)n4)C5)c3)nc2c1` (stereo not shown) [Compound 176, 1-(2-(2-(3-((2-(difluoromethyl)-2H-tetrazol-5-yl)(phenyl)methyl)-3,8-diazabicyclo[3.2.1]octane-8-carbonyl)pyridin-4-yl)benzo[d]oxazol-5-yl)pyrrolidin-2-one], for which the values for the EC50 in the assay on IFVA/Mal/302/54 and in the assay with IFVA/Weiss/43 were 21 nM and 33 nM, respectively.

On to `Cn1nnc(C(c2ccccc2)N2CCN(C(=O)c3cc(-c4nc5cc(NC(=O)C6(F)CC6)ccc5o4)ccn3)CC2)n1` (stereo not shown) [Compound 194, 1-fluoro-N-(2-(2-(4-((2-methyl-2H-tetrazol-5-yl)(phenyl)methyl)piperazine-1-carbonyl)pyridin-4-yl)benzo[d]oxazol-5-yl)cyclopropane-1-carboxamide], for which the EC50 in the assay with IFVA/Mal/302/54 came to 25 nM; in the assay on IFVA/Weiss/43 it was 24 nM.
